Literature values, collected in patent publication EP0513922B1, “Coating for foods and agricultural products to prevent the growth of moulds” (GIST-BROCADES N.V., priority 1991, dated 1992).

Experiments:
[1] = in aqueous systems, depending of the presence of other substances
fungus growth = details: to be effective against fungus growth

For C[C@@H]1C/C=C/C=C/C=C/C=C/[C@H](O[C@@H]2O[C@H](C)[C@@H](O)[C@H](N)[C@@H]2O)C[C@@H]2O[C@](O)(C[C@@H](O)C[C@H]3O[C@@H]3/C=C/C(=O)O1)C[C@H](O)[C@H]2C(=O)O [natamycin], which solubility of natamycin [1] is on record?
The solubility of natamycin was 30 - 50 ppm.

And the minimal inhibitory concentration (fungus growth)?
The minimal inhibitory concentration was “less than 10 ppm”.
